Test results from patent publication US11466066B2, “Variants of human BMP7 protein” (ELI LILLY AND COMPANY, priority 2017, dated 2022).

Key:
[1] = test system: 3T3-L1 fibroblasts; experiment: Alkaline phosphatase stimulation in 3T3-L1 cells; assay type: cell-based; settings: 1 μg/ml pro-BMP7, 1 μM ATRA, 48 hours
Procedure: (§1) 3T3-L1 fibroblasts and MFc7 mouse renal myofibroblasts may be grown essentially as described in Example 2 above. After 48 hours the cells may be washed with PBS prior to the addition of either DMEM/2% dialyzed FBS or OPTI-MEM/2% dialyzed FBS medium containing control vehicle, 1 μg/ml human proBMP7 protein, 1 μM ATRA or a combination of both human BMP7 protein (1 μg/ml) and ATRA (1 μM) may be added for 48 hours. After treatment the cells may be rinsed with PBS and stored at −80° C. for approximately 20 minutes. The cells may be thawed at 37° C. for 30 minutes and 100 μl of PNPP may be added to every well. The plate may be incubated at 37° C. for 1 hour. The absorbance at 405 nm may be read on a plate reader.

[2] = test system: Ki67; experiment: Ki67 expression in GBM cells; assay type: cell-based, human; settings: ATRA 1 μg/ml, F9 100 ng/mL
Procedure: (§2) Glioblastoma multiforme stem cells (GBMs) may be obtained from patients with primitive brain tumors undergoing complete or partial surgical resection. These cells may be maintained as neurospheres in defined media with 3.34 g/L of DMEM and 2.66 g/L F12 reconstituted in sterile distilled water and containing 1% glucose, 0.12% sodium bicarbonate, 5 mM hepes, 2 mM L-glutamine, 4 mg/L heparin, 10 ng/mL bFGF, 20 ng/mL EGF, 0.4% BSA, 100 μg/mL apotransferrin, 25 μg/mL insulin, 60 uM putrescine, 30 nM sodium selenite, and 20 nM progesterone. Cells may be cultured at 37° C. in 5% CO2. Cells may be plated by enzymatically dispersing spheres into single cells with a 2-5 minute incubation at 37° C. with TrypLE™ Express cell dissociation enzyme. The enzyme may be quenched with Dulbecco's Phosphate Buffered Saline (DPBS) containing Ca+ and Mg+. Then the cells may centrifuged to remove TrypLE and DPBS and resuspended as single cells in defined media and counted by a Coulter Z2 Cell and Particle counter.
(§3) Single GBM cells may be plated in defined media at 2×10^6 cells/15 mL/T75 flask for high content imaging or 5×10^5 cells/2 mL/well in 6-well plates for light microscopy. Cells may be treated with 0.01% DMSO, 1 μg/mL ATRA, 100 ng/mL of a human BMP7 protein variant of the present invention (e.g., human BMP7 protein variant F9 (SEQ ID NO: 8)), or a combination of 1 μg/mL ATRA and 100 ng/mL human BMP7 protein variant of the present invention. For light microscopy imaging of the effect of control BMPs (BMP2 and BMP4), cells may be plated as above in 6-well dishes and treated with 0.01% DMSO, 1 μg/mL ATRA, 100 ng/mL BMP2, 50 ng/mL BMP4, or a combination of BMPs at the same concentrations plus 1 μg/mL ATRA. Example images may be captured at 3, 7, and 30 days post-treatment on a Leica DMIRM inverted microscope using a 20× objective, for example. For growth longer than 7 days, media and treatment may be changed approximately every 10 days beginning at day 10. […]

[3] = test system: MFc7 mouse renal myofibroblasts; experiment: Alkaline phosphatase stimulation in MFc7 cells; assay type: cell-based; settings: 1 μg/ml pro-BMP7, 1 μM ATRA, 48 hours
Procedure: as §1

[4] = test system: SOX2; experiment: SOX2 expression in GBM cells; assay type: cell-based, human; settings: ATRA 1 μg/ml, F9 100 ng/mL
Procedure: as §2, §3

[5] = test system: DLD1 C5 tumor xenografts; experiment: DLD1 C5 mouse xenograft tumor model; assay type: in vivo; settings: saline-treated, then irinotecan treated animals (20 mg/kg, M and Th)
Procedure: Female athymic nude mice age 6- to 7-weeks old are available commercially, including from Harlan Laboratories (Indianapolis, Ind.). The mice are allowed to acclimate for one week and fed ad libitum on a normal low fat (4.5%) diet, which may be continued for the duration of the study. Tumor cells are available for purchase from ATCC and may be cultured in cell culture media such as RPMI 1640 (Life Technologies) with L-glutamine, 25 mM HEPES supplemented with 10% FBS and 1 mM Na Pyruvate. Cells may be detached, washed with serum free medium and then resuspended at a final concentration of 50×10^6 cells/mL in serum free RPMI 1640. Tumor cells, approximately 5×106 may be injected subcutaneously in the rear flank of subject mice in a 1:1 mixture of serum free growth medium and Matrigel (Becton Dickinson, Bedford, Mass.). Tumor and body weight measurements may be performed twice weekly. Prior to treatment, mice can be randomized based on tumor size using a randomization algorithm. Treatments may be started when the average tumor volume reaches 100 mm3. […]
All test or control proteins are prepared in phosphate Buffered Saline (PBS) prior to dose. Tumor size may be determined by caliper measurements. […] Log volume data can be analyzed with two-way repeated measures ANOVA by time and treatment using SAS PROC MIXED software (SAS Institutes Inc, Cary, N.C.). […]

[6] = test system: ADSC/ECFC co-culture stimulated with VEGF; experiment: VEGF-driven cord formation; assay type: cell-based; settings: 100 nM; 10 ng/ml VEGF; 96 hours
Source text: (§4) An in vitro endothelial cord formation assay, a surrogate of angiogenesis, may be used to investigate the role of human BMP7 proteins on various growth factor established cords including, but not limited to, VEGF, basic FGF, and EGF established cords. Endothelial cord forming cells (ECFCs; passage 4-10 suitable for cord formation) may be cultured in EGM-2 MV (Lona) media containing a final concentration of 10% FBS and passaged onto type 1 collagen (fibrillar) coated flasks prior to seeding into the cord formation assay in vitro. […]
(§5) An ADSC/ECFC co-culture was unstimulated (basal) or stimulated with 10 ng/ml VEGF and treated simultaneously with PBS or 100 ng/ml human pro-BMP7 variant F9 or 100 nM sunitinib for 96 hours prior to immunohistochemistry for CD31 (green), α-smooth muscle actin (red), and Hoechst 33342 to stain all nuclei (blue). Resulting CD31-positive endothelial cords were visualized and quantitated using high content imaging. […]

[7] = test system: ADSC/ECFC co-culture stimulated with bFGF; experiment: FGF-driven cord formation; assay type: cell-based; settings: 100 nM; 10 ng/ml bFGF; 96 hours
Source text: as §4
as §5, with “bFGF” for “VEGF”

[8] = test system: ADSC/ECFC co-culture stimulated with EGF; experiment: EGF-driven cord formation; assay type: cell-based; settings: 100 nM; 10 ng/ml EGF; 96 hours
Source text: as §4
as §5, with “EGF” for “VEGF”

CC1=C(/C=C/C(C)=C/C=C/C(C)=C/C(=O)O)C(C)(C)CCC1 [ATRA, All-trans retinoic acid, reference compound]
fold change in alkaline phosphatase stimulation relative to control vehicle treated cells [1]: 2.9 fold | Ki67 percent responders normalized to vehicle control ([2]; GBM clone CL-1, Day 3): 99% | Ki67 percent responders normalized to vehicle control ([2]; GBM clone CL-61, Day 0): 83% | Ki67 percent responders normalized to vehicle control ([2]; GBM clone Cl-1, Day 25): 101% | fold change in alkaline phosphatase stimulation relative to control vehicle treated cells [3]: 8 fold | SOX2 percent responders normalized to vehicle control ([4]; GBM clone CL-1, Day 3): 97% | SOX2 percent responders normalized to vehicle control ([4]; GBM clone CL-61, Day 0): 89% | SOX2 percent responders normalized to vehicle control ([4]; GBM clone Cl-1, Day 25): 97%

CCc1c2c(nc3ccc(OC(=O)N4CCC(N5CCCCC5)CC4)cc13)-c1cc3c(c(=O)n1C2)COC(=O)[C@]3(O)CC [irinotecan, reference compound]
tumor response [5]: tumor growth

CCN(CC)CCNC(=O)c1c(C)[nH]c(/C=C2\C(=O)Nc3ccc(F)cc32)c1C [sunitinib, reference compound]
Connected Tube Area - VEGF (% PBS) [6]: 26.14 ± 9.88% | Connected Tube Area - FGF (% PBS) [7]: 43.01 ± 18.28% | Connected Tube Area - EGF (% PBS) [8]: 9.89 ± 8.059%
